For this test, the system named is HeLa, PC-3M, and MDA-MB-231. The test can be described thus: MTS growth inhibition assay, human cancer cell lines. In kind it is cell-based. As to conditions: 72 hr, MTS proliferation assay. The protocol:
Cell Culture: HeLa (cervical carcinoma), WI-38 (normal human […] fibroblasts), and MDA-MB-231 (breast carcinoma), cells were cultured in DMEM (Invitrogen—Carlsbad, Calif.) and PC-3M (metastatic prostate carcinoma) cells were cultured in RPMI-1640. Peripheral blood mononuclear cells (PBMCs) were voluntarily collected from a healthy laboratory worker by standard sterile phlebotomy techniques and isolated using Vacutainer CPT collection tubes (BD Biosciences—Bedford, Mass.). PBMCs were isolated freshly for each experiment. All DMEM and RPMI-1640 media was supplemented with 10% FBS (Atlanta Biologicals—Lawrenceville, Ga.) and 100 U/mL penicillin and streptomycin (Invitrogen). […]
Growth Inhibition Assays: HeLa, MDA-MB-231, PC-3M, WI-38, and HUVEC cells were plated at 5,000 cells per well in 96 well plates and allowed to attach for 20 hr (8 hr for HeLa). […] Cell proliferation was measured at t=0 (time at start of treatment) and t=72 hr using MTS AQueous non-radioactive proliferation assay (Promega—Madison, Wis.). […] The absorbance at 490 nm in each well was read with a Spectramax 250 plate reader (Molecular Devices—Sunnyvale, Calif.). […] Data were fit to one site dose response curves in order to obtain specific growth inhibitory concentrations and the relative standard errors of the mean for these concentrations were calculated by the XLfit4 software. […]
For orientation: Tetrazolium assays rely on reduction of a dye to a coloured formazan, in cell work by metabolically active cells.

Take `CN(C)CCN1C(=O)c2cccc3c(N)ccc(c23)C1=O` [A1, 6-amino-2-[2-(dimethylamino)ethyl]-1H-benz[de]isoquinoline-1,3(2H)-dione]: the growth inhibition potency entry is “near identical to amonafide”.

These data come from patent US9878984B2, “Anti-cancer compounds” (NORTHWESTERN UNIVERSITY, priority 2008, dated 2018).
